In patent US5177188A, “Methods and compositions for diagnosing chronic immune thrombocytopenic purpura” (The Scripps Research Institute, priority 1990, dated 1993):

Assays:
Parameters in all cases: species or system human
[1] = system: plasma autoantibodies (anti-GPIIIa) of chronic ITP patients; assay: Solid-phase radioimmunoassay: plasma autoantibody binding to well-bound synthetic GPIIIa peptide
Method: Microtiter wells were activated with 100 μl of 0.1% glutaraldehyde in coating buffer (0.1M NaHCO3, pH 8.3) for 1 hr at room temperature (RT). Wells were washed twice with PBS and then incubated for 2 hr at PT with 1 μg of each synthetic peptide in 100 μl of coating buffer. After 6 washes with 0.05% Tween-20 (Sigma Chemical Co., St. Louis, MO) in PBS (wash buffer), each well was incubated with 200 μl of 2% BSA in wash buffer for 1 hr at RT. The wells were washed 6 times, followed by the addition to triplicate wells of 100 μl of plasma diluted 1/10 in wash buffer. After incubation for 1 hr and 6 washes, 100 μl of radiolabeled anti-human igG in wash buffer (100,000 cpm) was added to each well. After a final 1 hr incubation and 6 washes, well-bound radioactivity was determined. Data were expressed as a ratio: Mean cpm bound to GPIIIa peptide divided by mean cpm bound to control peptide (P10).
Nine synthetic peptides corresponding to different sequences within platelet GPIIIa (P1-P9, Table 1) were used as antigenic targets. A synthetic peptide of human HLA Class I heavy chain was used as a control (P10). Plasma from 13 patients with chronic ITP was studied. […] These 2 hydrophilic overlapping peptides are located at the carboxyterminal region of GPIIIa and together comprise the portion of the molecule considered to be the cytoplasmic domain. Plasma for patients ITP-1 and ITP-2 bound to peptide 9 with mean ratios of 32.4 (3 studies) and 5.8 (2 studies), respectively, while patient ITP-3 plasma bound to both peptides 8 and 9 (mean ratios of 13.3 and 3.3, respectively; 3 studies) and patients ITP-4 and ITP-5 bound to peptide 8 (mean ratios of 3.6, 2 studies and 9.4, 2 studies).

[2] = system: autoantibody binding to washed platelets; assay: Inhibition of autoantibody binding to washed platelets by peptide
Method: Washed platelets (3×10^7) were incubated with patient plasma (ITP-1-15 μl, ITP-2-60 μl, ITP-3-30 μl) in a total volume of 200 μl citrate buffer for 2 hrs at room temperature, followed by 4 washes. After resuspension in 300 μl of citrate buffer, platelets were lysed with 33 μl of 10% Triton X-100 in citrate buffer. Next, 100 μl of lysate was added to wells coated with murine anti-GPIIb. Bound antibody was detected with labeled anti-human IgG as described.
(§1) To evaluate the ability of washed platelets, affinity-purified GPIIb/IIIa or synthetic peptides to block autoantibody binding, serial dilutions of platelets, GPIIb/IIIa or synthetic peptides (maximum addition: 10^10 platelets, 200 μg GPIIb/IIIa or 10 μg of peptide per 100 μl plasma, respectively) were incubated overnight at 4° C. with the patient's plasma. The preincubated plasma (100 μl 1/10 dilution) was added to replicate wells containing either GPIIb/IIIa from platelet lysate, affinity-purified GPIIb/IIIa or synthetic peptide, and antibody binding to each well was evaluated as describe above. Data were expressed as a percent of the binding of untreated plasma (% inhibition).
To evaluate the contribution of these antipeptide antibodies to the patients' total plasma anti-GPIIb/IIIa activity, the ITP plasmas were preincubated with serial dilutions of the appropriate peptide (8 or 9) and then tested in 4 different assays. In the first, the pretreated plasma was incubated with platelets. After washing and lysis, the GPIIb/IIIa complexes were captured on microtiter wells by monoclonal antibody. In the other 3 assays, pretreated plasma was added to microtiter wells coated directly with either peptide or affinity-purified GPIIb/IIIa (Aff-GPIIb/IIIa) or to microtiter wells with GPIIb/IIIa from plate let lysate immobilized by monoclonal antibody (Moab-GPIIb/IIIa). Antibody binding was detected in all assays with labeled antihuman IgG.

[3] = system: antipeptide antibody binding to GPIIIa peptides; assay: Inhibition of antipeptide antibody binding to GPIIIa peptides by platelets or purified GPIIb/IIIa; conditions: plasma ITP-1, -2, -3 (1/10 dilution) preincubated with inhibitor
Method: as §1
Three of the peptide-positive plasma samples (ITP-1, -2 and -3) were tested further; additional testing of ITP-4 and ITP-5 was not possible due to insufficient plasma.

Substance | mean binding ratio (cpm bound to GPIIIa peptide / cpm bound to control peptide P10) ([1]; plasma of patient ITP-1, 1/10 dilution, 3 studies) | mean binding ratio (cpm bound to GPIIIa peptide / cpm bound to control peptide P10) ([1]; plasma of patient ITP-2, 1/10 dilution, 2 studies) | mean binding ratio (cpm bound to GPIIIa peptide / cpm bound to control peptide P10) ([1]; plasma of patient ITP-3, 1/10 dilution, 3 studies) | inhibition of autoantibody binding to washed platelets ([2]; plasma ITP-1 preincubated with peptide, 3 studies (range)) | inhibition of autoantibody binding to washed platelets ([2]; plasma ITP-2 preincubated with peptide, 2 studies) [%] | inhibition of antibody binding to both platelets and GPIIb/IIIa from platelet lysates ([2]; plasma from ITP-1 and ITP-2 preincubated with peptide, summary in discussion) [%] | inhibition of antibody reactivity of plasma with the GPIIIa peptides [3]
ANNPLYKEATSTFTNITYRDT (ANNPLYDEATSTFTNITYRDT) [P9] | 32.4 | 5.8 | 3.3 | 87.8-98.0 | 94.0 | > 80 | 
affinity-purified GPIIb/IIIa: GPIIb/IIIa complex eluted from an anti-GPIIb monoclonal antibody (2A9) column loaded with platelet extract |  |  |  |  |  |  | completely inhibited
